Results from PubChem BioAssay (NCI).
Values joined by “and” are separate entries in the source; they are usually repeats but may differ in a detail not shown here. Identical values can stand only once.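 Exposure lasted 48 hours, with cells grown in 96-well plates and compounds tested at five concentrations. GI50: concentration for 50% inhibition of growth. At the TGI there is no net growth.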 *1 amine or outer side, *2 acyl side, *3 side chain or, on linkers, in order; H or OH if unused. Where a SMILES comes first, the peptide text is derived from it. Bridges are numbered along the chain shown (N, C = ends). Roman numbers before positions name the chains, in order. [ ]: non-standard residue; d: D form. Actinocin(9to1) = Cc1c2oc3c(C)ccc(C(=O)[*:1])c3nc-2c(C(=O)[*:2])c(N)c1=O; NMeT = CN[CH](C(=O)O)[CH](C)O; Sar = CNCC(=O)O

How the values were obtained:
Assay in all cases: DTP human tumour cell line panel, 48 h
[1] = tested on: HCT-15 colon
[2] = tested on: OVCAR-4 ovarian
[3] = tested on: OVCAR-5 ovarian
[4] = tested on: SN12C renal
[5] = tested on: DU-145 prostate
[6] = tested on: MCF7 breast
[7] = tested on: UO-31 renal
[8] = tested on: U251 CNS
[9] = tested on: HT29 colon
[10] = tested on: SK-MEL-2 melanoma

| Compound | GI50 [1] | TGI [1] | GI50 [2] | TGI [2] | GI50 [3] | TGI [3] | GI50 [4] | TGI [4] | GI50 [5] | TGI [5] | GI50 [6] | TGI [6] | GI50 [7] | TGI [7] | GI50 [8] | TGI [8] | GI50 [9] | TGI [9] | GI50 [10] | TGI [10] |
| --- | --- | --- | --- | --- | --- | --- | --- | --- | --- | --- | --- | --- | --- | --- | --- | --- | --- | --- | --- | --- |
| N#CC1=C(N)Oc2c(ccc3ccccc23)C1c1ccccc1 (stereo not drawn) | 0.0478 µM | 10.7 µM | 0.063 µM | 14.5 µM | 0.172 µM | 17.2 µM | 0.0793 µM | 13.7 µM | 0.0468 µM | 12.8 µM | 0.0393 µM | 15.6 µM | 0.0622 µM | 15.2 µM | 0.0454 µM | 15.1 µM | 0.146 µM | 11.1 µM | 0.0517 µM | 12.6 µM |
| CC(=O)N1C/C(=C/c2ccc(Cl)cc2)C(=O)/C(=C/c2ccc(Cl)cc2)C1 | 0.446 µM | 1.52 µM | 0.795 µM | 3.22 µM | 1.68 µM | 3.45 µM | 0.72 µM | 2.24 µM | 1.13 µM | 2.62 µM | 0.292 µM | 1.13 µM | 0.887 µM | 2.35 µM | 0.337 µM | 1.18 µM | 0.254 µM | 0.619 µM | 2.19 µM | 4.56 µM |
| CCOC(=O)NC1C2CC(=O)OC(O2)C1OC(C)=O (stereo not drawn) | – | > 100 µM | – | > 100 µM | – | > 100 µM | – | > 100 µM | > 100 µM | > 100 µM | > 100 µM | > 100 µM | – | > 100 µM | – | > 100 µM | – | > 100 µM | – | > 100 µM |
| C=C1C(=O)OC2C1CCC(C)C1C=CC(=O)C12C (stereo not drawn) | – | 4.11 µM | – | 16.6 µM | – | 13.8 µM | – | 13.5 µM | – | 7.36 µM | – | 16.5 µM | – | 9.26 µM | – | 29.5 µM | – | 4.53 µM | – | 17.5 µM |
| Cc1c2oc3c(C)ccc(C(=O)NC4C(=O)NC(C(C)C)C(=O)N5CCCC5C(=O)N(C)CC(=O)N(C)C(C(C)O)C(=O)OC4C)c3nc-2c(C(=O)NC2C(=O)NC(C(C)C)C(=O)N3CCCC3C(=O)N(C)CC(=O)N(C)C(C(C)O)C(=O)OC2C)c(N)c1=O (stereo not drawn) (I: TVP[Sar][NMeT] / II: TVP[Sar][NMeT]; ester I:1-I:C, II:1-II:C; linker I:N-II:N via Actinocin(9to1); configuration not given here) | 14.1 µM and > 1 µM | > 100 µM | 6.1 µM and > 1 µM | 32.4 µM and > 1 µM | 4.29 µM and > 1 µM | > 43.4 µM | – | 42.8 µM and > 1 µM | 5.98 µM and > 1 µM | > 100 µM | – | > 1 µM | 2.99 µM and > 1 µM | 24.8 µM and > 1 µM | – | 7.27 µM and > 1 µM | 3.17 µM and 0.724 µM | > 100 µM | – | 3.97 µM and > 1 µM |
| CNC/C(Cl)=N/S(=O)(=O)c1ccc(C)cc1 | – | > 100 µM | – | 25.4 µM | – | 47.5 µM | – | 28.1 µM | – | 18.1 µM | – | 23.7 µM | – | 36.6 µM | – | 20.5 µM | – | 60.4 µM | – | 34.4 µM |
| NC[C@H]1Nc2ccccc2[C@@H](O)C1O (stereo partly drawn) | – | > 100 µM | – | > 100 µM | – | > 100 µM | – | > 100 µM | – | > 100 µM | – | > 100 µM | – | > 100 µM | – | > 100 µM | – | > 100 µM | – | > 100 µM |
| COc1ccc(NC([Se])=NC23CC4CC(CC(C4)C2)C3)cc1 | 1.57 µM | 11.1 µM | 0.42 µM | 3.46 µM | 1.7 µM | 4.68 µM | 1.61 µM | 8.81 µM | 3.13 µM | 11.2 µM | 1.57 µM | 9.4 µM | 1.74 µM | 4.11 µM | 1.27 µM | 4.91 µM | 2.64 µM | 15 µM | 2.27 µM | 7.33 µM |
| C=C1C(C2(C)C(OC(C)=O)CC(=O)OC(C)(COC(C)=O)C2CC(=O)OC)C(OC=O)C(OC(=O)C(O)C(C)CC)C2(C)C(c3ccoc3)CC(=O)C12O (stereo not drawn) | – | > 100 µM | – | > 100 µM | – | > 100 µM | – | > 100 µM | – | > 100 µM | – | > 100 µM | – | 18.1 µM | – | > 100 µM | – | > 100 µM | – | > 100 µM |
| Cc1cc(O)cc2c1[C@]1(C)CCC3C(C)(C)CCC[C@]3(C)[C@H]1C2 (stereo partly drawn) | 19.9 µM | 38.1 µM | 17.5 µM | 33.8 µM | 21.4 µM | 37.2 µM | 17.2 µM | 32.3 µM | 19.1 µM | 35 µM | 18.6 µM | 33.3 µM | 20.5 µM | 36.4 µM | 19.2 µM | 33.5 µM | 18.5 µM | 35.5 µM | 26.2 µM | 52.7 µM |
